Laboratory results taken from ChEMBL document CHEMBL4130622, “Retinoic Acid Receptor-Related Orphan Receptor γt (RORγt) Agonists as Potential Small Molecule Therapeutics for Cancer Immunotherapy” (J Med Chem, 2018).

What was measured:
[1] = biological target: T1, Nuclear receptor ROR-gamma (Homo sapiens, UniProt P51449); assay: Agonist activity at 6xHis tagged human RORgammat LBD (262 to 507 residues) expressed in Escherichia coli BL21 (DE3) assessed as biotinylated SRC1-2 peptide coactivator recruitment by AlphaScreen assay
T1 sequence (P51449 whole entry): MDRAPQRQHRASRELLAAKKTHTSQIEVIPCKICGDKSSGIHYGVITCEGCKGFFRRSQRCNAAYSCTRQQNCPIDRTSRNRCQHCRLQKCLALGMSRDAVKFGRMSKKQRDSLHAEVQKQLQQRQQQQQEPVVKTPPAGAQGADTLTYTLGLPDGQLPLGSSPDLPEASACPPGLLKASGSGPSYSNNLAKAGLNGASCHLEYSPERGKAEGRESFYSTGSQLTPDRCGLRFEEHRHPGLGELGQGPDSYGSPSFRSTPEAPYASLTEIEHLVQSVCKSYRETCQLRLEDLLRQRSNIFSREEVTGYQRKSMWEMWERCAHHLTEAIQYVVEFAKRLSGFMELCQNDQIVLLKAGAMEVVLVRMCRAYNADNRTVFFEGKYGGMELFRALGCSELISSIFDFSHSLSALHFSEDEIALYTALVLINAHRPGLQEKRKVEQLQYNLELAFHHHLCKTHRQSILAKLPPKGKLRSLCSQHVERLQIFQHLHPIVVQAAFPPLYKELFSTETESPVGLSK

[2] = biological target: T1, Nuclear receptor ROR-gamma; assay: Agonist activity at Gal4-fused RORgammat DNA binding domain (unknown origin) expressed in 293T cells assessed as SRC1 coactivator recruitment in presence of ursolic acid by TR-FRET assay; format: cell-based
[3] = biological target: T2, Nuclear receptor ROR-gamma (Homo sapiens) (UniProt P51449); assay: Agonist activity at His tagged human RORgammat LBD (unknown origin) expressed in baculovirus infected sf9 cells assessed as biotinylated-LXXLL peptide coactivator recruitment at <0.5 uM incubated for overnight by TR-FRET Assay relative to control
T2 sequence (whole entry): T1 sequence (P51449 whole entry)

[4] = biological target: T2, Nuclear receptor ROR-gamma (Homo sapiens); assay: Agonist activity at Gal4-fused DBD RORgammat LBD (unknown origin) expressed in HEK293 cells assessed as coactivator recruitment at <0.5 uM incubated for overnight in presence of ursolic acid by luciferase reporter gene Assay relative to control; format: cell-based
[5] = biological target: T1, Nuclear receptor ROR-gamma; assay: Agonist activity at Gal4-fused DBD RORgammat LBD (unknown origin) expressed in HEK293 cells assessed as coactivator recruitment incubated for overnight in presence of ursolic acid by luciferase reporter gene Assay; format: cell-based
[6] = biological target: T1, Nuclear receptor ROR-gamma; assay: Agonist activity at His tagged RORgammat LBD (unknown origin) expressed in baculovirus infected sf9 cells assessed as biotinylated-LXXLL peptide coactivator recruitment incubated for overnight by TR-FRET Assay

SMILES | EC50 [1] | Activity [3] | Activity [4] | further results
CC(C)CC[C@@H](O)[C@@H](C)[C@H]1CC[C@H]2[C@@H]3CC=C4C[C@@H](O)CC[C@]4(C)[C@H]3CC[C@]12C [22(R)-HYDROXYCHOLESTEROL] | 0.02 to 0.04 µM |  |  | 
CC(C)CCC[C@@](C)(O)[C@H]1CC[C@H]2[C@@H]3CC=C4C[C@@H](O)CC[C@]4(C)[C@H]3CC[C@@]21C | 0.02 to 0.04 µM |  |  | 
CC(C)CCC[C@@H](C)[C@H]1CC[C@H]2[C@@H]3CC=C4C[C@@H](O)CC[C@]4(C)[C@H]3CC[C@]12C [CHOLESTEROL] | 0.02 µM |  |  | 
CC(C)=CCC[C@@H](C)[C@H]1CC[C@H]2[C@@H]3CC=C4C[C@@H](O)CC[C@]4(C)[C@H]3CC[C@]12C [DESMOSTEROL] |  |  |  | EC50 [2]: 0.08 µM
CC(C)=CCC[C@@H](C)[C@H]1CC[C@H]2C3=C(CC[C@]12C)[C@@]1(C)CC[C@H](O)C[C@@H]1CC3 |  |  |  | EC50 [2]: 0.11 µM
C/C(=C\c1ccc2c(c1)N(S(=O)(=O)c1cccc(C(F)(F)F)c1)C[C@H](CCc1nn[nH]n1)O2)c1c(F)cccc1Cl |  | > 200% | > 200% | 
O=C(O)C1Cc2ccc(OCc3c(F)cccc3Cl)cc2N(S(=O)(=O)c2cccc(C(F)(F)F)c2)C1 (stereo not given) |  | > 200% | > 200% | 
C[C@H]1CN(S(=O)(=O)c2cccc(C(F)(F)F)c2)c2nc(COc3c(F)cccc3Cl)ccc2O1 |  |  |  | EC50 [5]: < 0.5 µM; EC50 [6]: < 0.5 µM
CCN(c1cccc(OCc2c(Cl)cccc2Cl)c1)S(=O)(=O)c1cccc(C(F)(F)F)c1 |  | > 200% | > 200% | 
COc1c(Cl)cccc1-c1ccc2c(c1)N(S(=O)(=O)c1cccc(C(F)(F)F)c1)C[C@H](CCC(=O)O)O2 |  | > 200% | > 200% | 
